Measured values: patent publication US20250228881A1, “COMPOSITION FOR PREVENTION OR TREATMENT OF MULTIPLE MYELOMA COMPRISING NOVEL T[…] AS ACTIVE INGREDIENT” (KBLUEBIO INC, priority 2021, published 2025)
“Also recorded” adds a separate entry of the source.

What was measured:
[1] = tested on: human-derived multiple myeloma cell lines ARH77, U266, and RPMI 8226; assay: Multiple myeloma mouse xenograft model, tail vein administration; assay type: in vivo; conditions: xenograft mice
Description: Using xenograft models obtained by injecting the same human-derived multiple myeloma cell lines ARH77, U266, and RPMI 8226 into mice, each of KBB-N2 was injected into the vein tail at 7 mg/Kg/day, and as a positive control, lenalidomide, which is currently widely used as a therapeutic agent for multiple myeloma in clinical practice, was injected into the vein tail at 1 mg/Kg/day.

[2] = tested on: normal hematopoietic stem cells; assay: Progenitor colony formation of normal PBSC fraction on methylcellulose (toxicity to hematopoietic stem cells); assay type: cell-based; conditions: normal donor PBSC, 2 weeks, KBB-N2 up to 60 μM
Description: G-CSF was subcutaneously injected into a normal donor to mobilize hematopoietic stem cells, and a peripheral blood stem cell (PBSC) fraction was extracted from the donor's peripheral blood by leukapheresis. The obtained normal PBSC fraction and KBB-N2 were cultured on methylcellulose for 2 weeks, and the cytotoxicity of KBB-N2 to hematopoietic stem cells was evaluated by counting the number of the formed erythroid progenitor colonies and leukocyte/megakaryocytic progenitor colonies.

[3] = tested on: multiple myeloma cell lines; assay: Co-treatment of multiple myeloma cell lines with KBB-N2 and lenalidomide (killing effect); assay type: cell-based, Human; conditions: co-treated with lenalidomide, compared with lenalidomide alone
Description: Multiple myeloma cells IM-9 and RPMI 8226 (3×10^6 cells/mL) treated with KBB-N2 for 48 hours were washed with 1x PBS (phosphate-buffered saline, pH 7.4) and fixed with 70% ethanol. After washing several times with 1×PBS, 5 μL of Annexin V-FITC and 5 μL of PI (propidium iodine) (Sigma-Aldrich, St. Louis, MO) were added to 500 μL of 1×PBS containing the cells (1×10^6 cells/mL) suspended therein, followed by staining in a dark room at room temperature for 30 minutes. Then, 500 μL of 1× binding buffer was added thereto, and flow cytometry was performed using FACSCalibur (Becton Dickinson, Franklin Lakes, NJ, USA), followed by analysis using the CellQuest software (Becton Dickinson) program.

RPMI 8226 cells = assay: Quantitative RT-PCR array of 84 apoptosis-related genes after KBB-N2 treatment; assay type: cell-based, Human; conditions: 50 μM KBB-N2, 48 hours
Description: To investigate the cell death mechanism induced by treatment with KBB-N2, changes in the expression of apoptosis-related genes in a multiple myeloma cell line were measured. 50 μM of KBB-N2 was added to multiple myeloma cells (million cells/mL), followed by 48 hours of culture. Then, total RNA was extracted and the expression levels of 84 apoptosis-related genes were analyzed using quantitative RT-PCR array (Cat #PAHS-012Z; Qiagen Seoul, Seoul, Korea). After treating the cells with 50 μM of KBB-N2, the cells were cultured for 48 hours, and total RNA was isolated from the RPMI 8226 cells using the RNAqueous total RNA isolation kit (Thermo Fisher Scientific). Contaminating genomic DNA in the extracted RNA was removed using an RNase-Free DNase set (Qiagen). Total RNA (5 ug) was reverse transcribed into cDNA in a reaction volume of 10 μL using the RT2 First Strand Kit (Qiagen). Next, 10 μL of cDNA was combined with each primer set of the human apoptosis-related RT2 Profiler PCR Array (Qiagen) according to the manufacturer's protocol. Amplification reactions were performed using the real-time polymerase chain reaction system CFX96 (Bio-Rad, Hercules, CA, USA) with automated baseline and threshold cycle detection. The relative expression of […] genes was normalized to five built-in housekeeping genes. Each group was analyzed by the web-based software GeneGlobe Data Analysis Center (Qiagen).

CC(C)=CCC[C@](C)(O)[C@H]1CC[C@]2(C)[C@@H]1[C@H](O)C[C@@H]1[C@@]3(C)CC[C@H](O[C@@H]4O[C@H](CO)[C@@H](O)[C@H](O)[C@H]4O)C(C)(C)[C@@H]3CC[C@]12C [KBB-N2]
therapeutic effect for multiple myeloma ([1]; KBB-N2 7 mg/Kg/day tail vein vs positive control lenalidomide 1 mg/Kg/day tail vein): therapeutic effect equal to or higher than that of traditional lenalidomide | effect on multiple myeloma treatment in bone marrow biopsy after treatment ([1]; bone marrow biopsy after treatment): effect of KBB-N2 on multiple myeloma treatment was also found | cytotoxicity to hematopoietic stem cells: number and morphology/formation of progenitor cell colonies [2]: not toxic to normal hematopoietic stem cells; also recorded: not significantly inhibited | killing effect on co-treatment with lenalidomide [3]: killing effect was higher | overexpression of apoptosis-related gene APAF1 (RPMI 8226 cells): at least 2 fold | overexpression of apoptosis-related gene BAD (RPMI 8226 cells): at least 2 fold | overexpression of apoptosis-related gene BCL2 (RPMI 8226 cells): at least 3 fold | overexpression of apoptosis-related gene BCL2L1 (RPMI 8226 cells): at least 2 fold | overexpression of apoptosis-related gene CAS7 (RPMI 8226 cells): at least 3 fold | overexpression of apoptosis-related gene CASP2 (RPMI 8226 cells): at least 2 fold | overexpression of apoptosis-related gene CASP3 (RPMI 8226 cells): at least 2 fold | overexpression of apoptosis-related gene DAPK1 (RPMI 8226 cells): at least 4 fold | overexpression of apoptosis-related gene FADD (RPMI 8226 cells): at least 2 fold | overexpression of apoptosis-related gene HRK (RPMI 8226 cells): at least 2 fold | overexpression of apoptosis-related gene IGFIR (RPMI 8226 cells): at least 2 fold | overexpression of apoptosis-related gene LTBR (RPMI 8226 cells): at least 2 fold | overexpression of apoptosis-related gene NAIP (RPMI 8226 cells): at least 2 fold | overexpression of apoptosis-related gene NOD1 (RPMI 8226 cells): at least 2 fold | overexpression of apoptosis-related gene NOL3 (RPMI 8226 cells): at least 2 fold | overexpression of apoptosis-related gene TNF (RPMI 8226 cells): at least 2 fold | overexpression of apoptosis-related gene TNFRF1A (RPMI 8226 cells): at least 2 fold | overexpression of apoptosis-related gene TNFRSF1B (RPMI 8226 cells): at least 2 fold | overexpression of apoptosis-related gene TNFRSF10A (RPMI 8226 cells): at least 2 fold | overexpression of apoptosis-related gene TNFRSF10B (RPMI 8226 cells): at least 2 fold | overexpression of apoptosis-related gene TNFRSF25 (RPMI 8226 cells): at least 2 fold | overexpression of apoptosis-related gene TP53 (RPMI 8226 cells): at least 2 fold | overexpression of apoptosis-related gene TRADD (RPMI 8226 cells): at least 2 fold | overexpression of apoptosis-related gene XIAP (RPMI 8226 cells): at least 2 fold
